The values that follow come from patent US9176118B2, “Methods employing insect models for determining intestinal absorption of chemical compounds” (Entomopharm ApS, priority 2009, dated 2015).

The nature of the data set: Decapitated locust model: hemolymph drug concentration by LCMS after administration via esophageal catheter. The settings on record: male, Locusta migratoria (locust), in vivo. The method, then:
The insects may be obtained from local suppliers or bred in house. The grasshoppers were reared under crowded conditions at 28° C. and a 12:12 dark:light photocycle and fed fresh grass and bran. Before experiments the grasshoppers were fed ecologically cultivated wheat for two weeks. Animals used are adult males (in some experiments females) between two to four weeks after adult emergence. After decapitation, test compounds are administrated via a catheter or a probe inserted into the midgut of the animal. At various times after administration hemolymph samples are taken for quantitative determination of drug concentration in the hemolymph. The samples are snap-frozen and stored until analyses. Drug concentration is analysed by HPLC, LC/MSMS or other methods.
The head of male locusts (Locusta migratoria), which have been starving for 12 hours, was cut off and a plastic catheter was inserted under microscope into the esophagus. 20 μl of quinidine (0.1 mg/ml) was administered via the catheter by using a Hamilton syringe.
(§1) 10 and 30 minutes after administration (10 μl) hemolymph was collected with a calibrated capillary tube by puncturing the ventral membrane anterior to the thorax and immediately blown into a tube containing 40 μl aqua dest and 100 μl of acetonitrile. Each sample was centrifuged for 5 minutes (10 000g at 4° C.). 100 μl of the supernatants were transferred to new test tubes for LCMS analysis.
as §1, with “The head of male locusts (Locusta migratoria), which have been starving for 12 hours, was cut off and a plastic catheter was inserted under microscope into the esophagus. 20 μl of quinidine (1 mg/ml) was administered via the catheter by using a Hamilton syringe. 10 and” for “10 and”
The head of male locusts (Locusta migratoria), which have been starving for 12 hours, was cut off and a plastic catheter was inserted under microscope into the esophagus. 20 μl of propranolol (0.1 mg/ml) was administered via the catheter by using a Hamilton syringe.
10 and 30 minutes after administration (10 μl) hemolymph was collected with a calibrated capillary tube by puncturing the ventral membrane anterior to the thorax and immediately blown into a tube containing 40 μl aqua dest and 100 μl of acetonitrile. Each sample was centrifuged for 5 minutes (10 000g at 4° C.). 100 μl of the supernatants were transferred to new test tubes for LCMS analysis. […]

For the setting “2 µg per animal”, `Cn1c(=O)c2c(ncn2C)n(C)c1=O` [caffeine] showed a concentration at 10 min of 177 ng/mL and a concentration at 30 min of 276 ng/mL. Under “20 µg per animal”, the concentration at 10 min was determined as 1150 ng/mL and the concentration at 30 min was determined as 1660 ng/mL.
